In US20250152623A1, “Compositions and kits for use in wound healing, tissue regeneration and/or bone regeneration” (priority 2022, published 2025):
Where two headings read alike, the source gives them in different places.

Key:
[1] = tested on: human primary fibroblasts obtained from human oral mucosa; assay type: cell-based; settings: 0.256 mg/mL calcium peroxide as single substance; cytotoxicity = more than 30% reduction (ISO 10993-5); FIG. 1
Method: (§1) To investigate the cytotoxicity of calcium peroxide, hyaluronic acid, and a combination thereof on cells, the substances were given to human primary fibroblasts, osteoblasts, and human umbilical vein endothelial cells (HUVEC) in vitro and compared to untreated cells and a dead control. For this purpose, cytotoxicity tests were performed according to ISO 10993-5 by measuring the cell viability quantitatively and […]. Additionally, biocompatibility tests were performed in the chorioallantoic membrane assay (CAM assay) in fertilized hen's eggs. All tests were repeated at least three times independently. In all tests 30 mg/mL hyaluronic acid and 0.256 mg/mL CaO2 were used. According to ISO 10993-5, cytotoxicity is defined by more than 30% reduction of the viable cell number by the substance.
Fibroblasts were obtained from human oral mucosa. Tissue samples were cut into small pieces of approximately 2×2 mm with a sterile disposable scalpel. […]
Cells were seeded into a 24-well-plate and they were given time to adhere overnight. […] Fluorescence was measured on a Fluorescence Microplate Reader (Fluoroskan Ascent Microplate reader, ThermoFisher Scientific, Waltham, MA, USA). Results were given as relative fluorescence using a 538 nm excitation filter and a 600 nm emission filter, normalized to untreated control.

[2] = tested on: human primary osteoblasts; assay type: cell-based; settings: 30 mg/mL hyaluronic acid, 0.256 mg/mL CaO2; FIG. 2
Method: as §1
Primary human osteoblasts were isolated according to the following protocol. Human bone specimens were obtained during hip or knee joint replacement surgeries. […]
Cells were seeded into a 24-well-plate and they were given time to adhere overnight. […] Fluorescence was measured on a Fluorescence Microplate Reader (Fluoroskan Ascent Microplate reader, ThermoFisher Scientific, Waltham, MA, USA). […]

[3] = tested on: chorioallantoic membrane (CAM); assay type: in vivo
Method: as §1
Fertilized white Leghorn chicken eggs (LSL Rhein-Main GmbH, Dieburg, Germany) were incubated at 38° C. with constant humidity of 55 rH in an incubator (Type 3000 digital and fully automatic, Siepmann GmbH, Herdecke, Germany). For the first three days, eggs were placed horizontally on one side to ensure that the CAM would detach from the upwards pointing eggshell. On the embryonic development day (EDD) 3, eggs were prepared by removing 5-6 mL of the albumen in order to enlarge the space between eggshell and CAM. A small window of 3×2 cm was cut into the upwards pointing part of the eggshell. The window was covered with Parafilm® (Sigma-Aldrich, St. Louis, MO, USA) to prevent evaporation. On EDD-8, Gelaspon Strips (Bausch & Lomb Inc.; New York, USA) were cut in slices of 1×0.5×2 mm. 20 μl of each substance (512 mg/L CaO2, 10 mg/mL sodium hyaluronate, combination thereof) were added to the sponge. 20 μl of water was used as control. The further assessment of potential tissue adverse events was performed blinded. After 3 h, on EDD-10, and EDD-12, pictures were taken with a digital intravital fluorescence microscope (Olympus BXFM, Olympus Deutschland GmbH, Hamburg, Germany) at a 100-fold magnification using the cellSens Dimension software package.

[4] = tested on: planktonic Streptococcus oralis ATCC 9811; assay: Planktonic bacterial growth and metabolic activity of S. oralis; assay type: cell-based; settings: for optical density at 600 nm (growth) compared to the control: 24 h anaerobic, FIG. 5 upper left
Method: According to FIG. 5, different concentrations of calcium peroxide were applied to mature biofilms in combination with hyaluronic acid. Calcium peroxide was added to planktonic bacterial strains S. oralis and P. gingivalis in concentrations ranging from 0 mg/L (control) to 500 mg/L with hyaluronic acid being present in a concentration of 11.550 mg/L. Shown in each case are the optical density at 600 nm, a parameter for the growth of a bacterial culture, and the relative metabolic activity. […] The autoclaved calcium peroxide (CaO2) (Sigma Aldrich, St. Louis, MO, US), ZnO2 and/or MgO2 was dissolved in sterile filtered, deionized, and autoclaved water. By serial dilutions with water (for planktonic experiments) or BHI/VitK (for biofilm experiments) the solutions were adjusted to concentration of 3.9-500 mg/l CaO2 for bacterial experiments. All solutions were freshly prepared for each experiment. Streptococcus oralis ATCC 9811 was obtained from the American Type Culture Collection (ATCC) and Porphyromonas gingivalis DSM 20709 derived from the German Collection of Microorganisms and Cell Cultures (DSMZ). The strains were grown under anaerobic conditions (80% N2, 10% H2, 10% CO2) at 37° C. for 24 h in 50 mL screw cap tube (Sarstedt, Nümbrecht, Germany) with Brain Heart Infusion Medium (BHI; Oxoid, Wesel, Germany) containing 10 μg/mL vitamin K (Roth, Karlsruhe, Germany; BHI/VitK) to obtain 24-hour-old precultures for further processing. In order to determine the influence of CaO2 on planktonic S. oralis and P. gingivalis, the 24-hour-old precultures were pelleted by centrifugation at 4,000 g for 15 min at 4° C., the supernatant was discarded and the bacterial pellets were resuspended in fresh double concentrated BHI/VitK medium (2×BH/VitK). The optical density was measured at 600 nm (OD600; BioPhotometer, Eppendorf, Hamburg, Germany), adjusted to 0.2 and dilute 1:10 with 2×BHI/VitK to 0.02. The freshly prepared CaO2 solution was mixed equally with the bacterial cultures (OD600=0.02) to a final OD600=0.01 and following final concentrations for CaO2: As positive controls, bacterial cultures (OD600=0.02) were mixed 1:2 with sterile filtered, deionized and autoclaved water (growth controls). […] To evaluate the effect of CaO2 on the growth of planktonic S. oralis and P. gingivalis cultures, the 24-h-old bacterial cultures were mixed and the optical density (OD600) was measured with a plate reader (Tecan, Mennedorf, Switzerland). Metabolic activity was measured using the BacTiter-Glo™ Microbial Viability Assay (Promega, Mannheim, Germany). […] After 5 min of incubation at room temperature under light protection, the samples were mixed again and the amount of adenosine triphosphate (ATP) was determined by measuring the luminescence using the plate reader. […]

[5] = tested on: planktonic Porphyromonas gingivalis DSM 20709; assay: Planktonic bacterial growth and metabolic activity of P. gingivalis; assay type: cell-based; settings: for relative metabolic activity compared to the control: FIG. 5 lower right; for optical density at 600 nm (growth) compared to the control: FIG. 5 top right
Method: According to FIG. 5, different concentrations of calcium peroxide were applied to mature biofilms in combination with hyaluronic acid. Calcium peroxide was added to planktonic bacterial strains S. oralis and P. gingivalis in concentrations ranging from 0 mg/L (control) to 500 mg/L with hyaluronic acid being present in a concentration of 11.550 mg/L. Shown in each case are the optical density at 600 nm, a parameter for the growth of a bacterial culture, and the relative metabolic activity. […] The autoclaved calcium peroxide (CaO2) (Sigma Aldrich, St. Louis, MO, US), ZnO2 and/or MgO2 was dissolved in sterile filtered, deionized, and autoclaved water. By serial dilutions with water (for planktonic experiments) or BHI/VitK (for biofilm experiments) the solutions were adjusted to concentration of 3.9-500 mg/l CaO2 for bacterial experiments. All solutions were freshly prepared for each experiment. Streptococcus oralis ATCC 9811 was obtained from the American Type Culture Collection (ATCC) and Porphyromonas gingivalis DSM 20709 derived from the German Collection of Microorganisms and Cell Cultures (DSMZ). The strains were grown under anaerobic conditions (80% N2, 10% H2, 10% CO2) at 37° C. for 24 h in 50 mL screw cap tube (Sarstedt, Nümbrecht, Germany) with Brain Heart Infusion Medium (BHI; Oxoid, Wesel, Germany) containing 10 μg/mL vitamin K (Roth, Karlsruhe, Germany; BHI/VitK) to obtain 24-hour-old precultures for further processing. In order to determine the influence of CaO2 on planktonic S. oralis and P. gingivalis, the 24-hour-old precultures were pelleted by centrifugation at 4,000 g for 15 min at 4° C., the supernatant was discarded and the bacterial pellets were resuspended in fresh double concentrated BHI/VitK medium (2×BH/VitK). The optical density was measured at 600 nm (OD600; BioPhotometer, Eppendorf, Hamburg, Germany), adjusted to 0.2 and dilute 1:10 with 2×BHI/VitK to 0.02. The freshly prepared CaO2 solution was mixed equally with the bacterial cultures (OD600=0.02) to a final OD600=0.01 and following final concentrations for CaO2: As positive controls, bacterial cultures (OD600=0.02) were mixed 1:2 with sterile filtered, deionized and autoclaved water (growth controls). As negative controls, 2×BHI/VitK was mixed equally with sterile filtered, deionized and autoclaved water (medium control) and the CaO2 solution was mixed 1:2 with 2×BHI/VitK (CaO2 solution control). Finally, 150 μL of each suspension was transferred into each well of a 96-well plate and cultivated for 24 h at 37° C. rotating (180 rpm) under anaerobic conditions (Anaerobic Jar and AnaeroGen; Oxoid, Wesel, Germany). All experiments were carried out in three biological and two technical replicates. To evaluate the effect of CaO2 on the growth of planktonic S. oralis and P. gingivalis cultures, the 24-h-old bacterial cultures were mixed and the optical density (OD600) was measured with a plate reader (Tecan, Mennedorf, Switzerland). Metabolic activity was measured using the BacTiter-Glo™ Microbial Viability Assay (Promega, Mannheim, Germany). 50 μL BacTiter-Glo™ reagent and 50 μL of the well-mixed bacterial cultures were added to opaque 96-well plates. After 5 min of incubation at room temperature under light protection, the samples were mixed again and the amount of adenosine triphosphate (ATP) was determined by measuring the luminescence using the plate reader. All results were normalized to the medium or CaO2 solution controls.

Compound	reduction in cell viability [1]	viability after treatment in comparison to untreated osteoblasts (=100% cell viability) [2]	adverse tissue reactions on the CAM ([3]; FIG. 4)	angiogenesis (area of the sponge covered by blood vessels) compared to untreated CAM tissue ([3]; FIG. 4A)	cytotoxic effect on the CAM ([3]; substance applied on sponge, FIGS. 4A and 4B)	growth inhibition of S. oralis ([4]; calcium peroxide 125 mg/L)	optical density at 600 nm (growth) compared to the control ([4]; calcium peroxide 250 mg/L)	optical density at 600 nm (growth) compared to the control ([4]; calcium peroxide 500 mg/L)	relative metabolic activity compared to the control ([4]; calcium peroxide up to 500 mg/L, FIG. 5 lower left)	relative metabolic activity compared to the control ([5]; calcium peroxide 125 mg/L)	optical density at 600 nm (growth) compared to the control ([5]; calcium peroxide 125 mg/L)	relative metabolic activity compared to the control ([5]; calcium peroxide 250 mg/L)	optical density at 600 nm (growth) compared to the control ([5]; calcium peroxide 250 mg/L)	relative metabolic activity compared to the control ([5]; calcium peroxide 500 mg/L)	optical density at 600 nm (growth) compared to the control ([5]; calcium peroxide 500 mg/L)	adverse tissue reactions on the CAM ([3]; in vivo)	cytotoxic effect on the CAM ([3]; in vivo)
[Ca+2].[O-][O-] [calcium peroxide]	more than 30%	hardly showed a reduction	no adverse tissue reactions	not significantly different	none of the tested substances had a cytotoxic effect	only very slightly inhibited	decreased significantly	decreased significantly	unchanged	significantly decreased	significantly decreased	significantly decreased	significantly decreased	significantly decreased	significantly decreased		
hyaluronic acid																no adverse tissue reactions	none of the tested substances had a cytotoxic effect
